Experimental data from ChEMBL document CHEMBL1143302, “Identification of 3-amido-4-anilinoquinolines as potent and selective inhibitors of CSF-1R kinase” (Bioorg Med Chem Lett, 2009).

Columns and labels:
Type in all cases: ADME, organism-based
[1] = Half life in rat at 3 mg/kg, iv and 10 mg/kg, po; conditions: in vivo
[2] = Volume of distribution at steady state in rat at 3 mg/kg, iv and 10 mg/kg, po; conditions: in vivo, read-out: Vdss
[3] = Clearance in rat at 3 mg/kg, iv and 10 mg/kg, po; conditions: in vivo
[4] = Bioavailability in rat at 3 mg/kg, iv and 10 mg/kg, po; conditions: in vivo

SMILES | half-life [1] [h] | Vd [2] [L/kg] | clearance [3] [mL/min/kg] | bioavailability [4] [%]
COc1cc2ncc(C(N)=O)c(Nc3cccc(Cl)c3Cl)c2cc1OC | 0.5 | 4.1 | 115 | –
COc1cc2ncc(C(N)=O)c(Nc3ccc(F)cc3)c2cc1OC | 0.9 | 0.3 | 7 | 96
COc1cc2c(Nc3cccc(Cl)c3Cl)c(C(N)=O)cnc2cc1NCCN(C)C | 2.4 | 19 | 90 | –
COc1cc2ncc(C(N)=O)c(Nc3cccc(Cl)c3Cl)c2cc1NCCN1CCCCC1 | 1.6 | 8.5 | 78 | –
COc1cc2c(Nc3ccc(F)cc3F)c(C(N)=O)cnc2cc1NCCN(C)C | 1.9 | 36 | 220 | –
COc1cc2c(Nc3ccc(F)c(Cl)c3)c(C(N)=O)cnc2cc1OCCN1CCCC1 | 2.4 | 52 | 270 | –
CCOc1cc2ncc(C(N)=O)c(Nc3cccc(Cl)c3Cl)c2cc1NCCN1CCCCC1 | 1.6 | 12 | 110 | –

Next, values leading:

half-life [1] [h] | Vd [2] [L/kg] | clearance [3] [mL/min/kg] | bioavailability [4] [%] | SMILES
2.1 | 40 | 210 | – | COc1cc2c(Nc3ccc(F)c(Cl)c3)c(C(N)=O)cnc2cc1OCCN(C)C
1.7 | 30 | 230 | – | COc1cc2c(Nc3ccc(F)c(Cl)c3)c(C(N)=O)cnc2cc1OCCNC1CC1
0.6 | 1.8 | 59 | 24 | COc1cc2ncc(C(N)=O)c(Nc3ccc(F)c(Cl)c3)c2cc1OC
